Measurements taken from PubChem BioAssay (NCI).
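The compound was tested at five concentrations on cells cultured in 96-well plates, with a 48-hour exposure period. GI50 is the concentration that inhibits growth by half. Definition used: TGI = concentration required for complete inhibition of growth.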

What was measured:
Assay in all cases: NCI tumour cell line growth inhibition, 48 h
OVCAR-4 ovarian = tested on: OVCAR-4 ovarian
HS 578T breast = tested on: HS 578T breast
SF-539 CNS = tested on: SF-539 CNS
MDA-MB-468 breast = tested on: MDA-MB-468 breast
MCF7 breast = tested on: MCF7 breast
OVCAR-3 ovarian = tested on: OVCAR-3 ovarian
NCI/ADR-RES ovarian = tested on: NCI/ADR-RES ovarian
TK-10 renal = tested on: TK-10 renal
EKVX NSCLC = tested on: EKVX NSCLC
T-47D breast = tested on: T-47D breast
SF-295 CNS = tested on: SF-295 CNS
M14 melanoma = tested on: M14 melanoma
NCI-H23 lung = tested on: NCI-H23 lung
CCRF-CEM leukemia = tested on: CCRF-CEM leukemia
MDA-MB-231 breast = tested on: MDA-MB-231 breast
SK-MEL-28 melanoma = tested on: SK-MEL-28 melanoma
786-0 renal = tested on: 786-0 renal
NCI-H522 lung = tested on: NCI-H522 lung
OVCAR-5 ovarian = tested on: OVCAR-5 ovarian
NCI-H460 lung = tested on: NCI-H460 lung
COLO 205 colon = tested on: COLO 205 colon
CAKI-1 renal = tested on: CAKI-1 renal
SK-MEL-5 melanoma = tested on: SK-MEL-5 melanoma
HL-60(TB) leukemia = tested on: HL-60(TB) leukemia
SN12C renal = tested on: SN12C renal
UACC-257 melanoma = tested on: UACC-257 melanoma
BT-549 breast = tested on: BT-549 breast
SR leukemia = tested on: SR leukemia
HOP-62 NSCLC = tested on: HOP-62 NSCLC
DU-145 prostate = tested on: DU-145 prostate
UACC-62 melanoma = tested on: UACC-62 melanoma
NCI-H226 lung = tested on: NCI-H226 lung
ACHN renal = tested on: ACHN renal
IGROV1 ovarian = tested on: IGROV1 ovarian
A549 NSCLC = tested on: A549 NSCLC
LOX IMVI melanoma = tested on: LOX IMVI melanoma
RXF 393 renal = tested on: RXF 393 renal
SW-620 colon = tested on: SW-620 colon
HT29 colon = tested on: HT29 colon
SK-MEL-2 melanoma = tested on: SK-MEL-2 melanoma
HCT-15 colon = tested on: HCT-15 colon
SF-268 CNS = tested on: SF-268 CNS
HOP-92 NSCLC = tested on: HOP-92 NSCLC
HCC-2998 colon = tested on: HCC-2998 colon
MALME-3M melanoma = tested on: MALME-3M melanoma
RPMI-8226 leukemia = tested on: RPMI-8226 leukemia
OVCAR-8 ovarian = tested on: OVCAR-8 ovarian
MOLT-4 leukemia = tested on: MOLT-4 leukemia
UO-31 renal = tested on: UO-31 renal
K-562 leukemia = tested on: K-562 leukemia
KM12 colon = tested on: KM12 colon
A498 renal = tested on: A498 renal
PC-3 prostate = tested on: PC-3 prostate
SK-OV-3 ovarian = tested on: SK-OV-3 ovarian
SNB-19 CNS = tested on: SNB-19 CNS
U251 CNS = tested on: U251 CNS
MDA-MB-435 = tested on: MDA-MB-435
SNB-75 CNS = tested on: SNB-75 CNS

COc1ccc(-c2nc3ccccc3n2CC(=O)N=Nc2c(O)[nH]c3ccc(OC)cc23)cc1
GI50 (OVCAR-4 ovarian): 11.6 µM | TGI (OVCAR-4 ovarian): 30 µM | GI50 (HS 578T breast): 6.39 µM | TGI (HS 578T breast): 32.3 µM | GI50 (SF-539 CNS): 2.95 µM | TGI (SF-539 CNS): 9.35 µM | GI50 (MDA-MB-468 breast): 2 µM | TGI (MDA-MB-468 breast): 5.17 µM | GI50 (MCF7 breast): 2.01 µM | TGI (MCF7 breast): 4.72 µM | GI50 (OVCAR-3 ovarian): 12.5 µM | TGI (OVCAR-3 ovarian): 26.6 µM | GI50 (NCI/ADR-RES ovarian): 2.02 µM | TGI (NCI/ADR-RES ovarian): 5.18 µM | GI50 (TK-10 renal): 10.9 µM | TGI (TK-10 renal): 23.1 µM | GI50 (EKVX NSCLC): 11.2 µM | TGI (EKVX NSCLC): 28.2 µM | GI50 (T-47D breast): 3.46 µM | TGI (T-47D breast): 16.3 µM | GI50 (SF-295 CNS): 14.3 µM | TGI (SF-295 CNS): 34.7 µM | GI50 (M14 melanoma): 3.15 µM | TGI (M14 melanoma): 11 µM | GI50 (NCI-H23 lung): 10.4 µM | TGI (NCI-H23 lung): 23.5 µM | GI50 (CCRF-CEM leukemia): 27.5 µM | TGI (CCRF-CEM leukemia): > 100 µM | GI50 (MDA-MB-231 breast): 5.76 µM | TGI (MDA-MB-231 breast): 19.2 µM | GI50 (SK-MEL-28 melanoma): 4.4 µM | TGI (SK-MEL-28 melanoma): 19.9 µM | GI50 (786-0 renal): 1.77 µM | TGI (786-0 renal): 4.26 µM | GI50 (NCI-H522 lung): 6.18 µM | TGI (NCI-H522 lung): 22.9 µM | GI50 (OVCAR-5 ovarian): 13.8 µM | TGI (OVCAR-5 ovarian): 33.6 µM | GI50 (NCI-H460 lung): 4.22 µM | TGI (NCI-H460 lung): 15.4 µM | GI50 (COLO 205 colon): 16.1 µM | TGI (COLO 205 colon): 33.9 µM | GI50 (CAKI-1 renal): 2.77 µM | TGI (CAKI-1 renal): 8.75 µM | GI50 (SK-MEL-5 melanoma): 5.37 µM | TGI (SK-MEL-5 melanoma): 18.3 µM | GI50 (HL-60(TB) leukemia): 2.83 µM | TGI (HL-60(TB) leukemia): 13.5 µM | GI50 (SN12C renal): 6.02 µM | TGI (SN12C renal): 19.3 µM | GI50 (UACC-257 melanoma): 2.56 µM | TGI (UACC-257 melanoma): 7.16 µM | GI50 (BT-549 breast): 2.52 µM | TGI (BT-549 breast): 6.47 µM | GI50 (SR leukemia): 2.52 µM | TGI (SR leukemia): 25.7 µM | GI50 (HOP-62 NSCLC): 17.5 µM | TGI (HOP-62 NSCLC): 35.1 µM | GI50 (DU-145 prostate): 4.53 µM | TGI (DU-145 prostate): 15.5 µM | GI50 (UACC-62 melanoma): 11.2 µM | TGI (UACC-62 melanoma): 23.3 µM | GI50 (NCI-H226 lung): 1.8 µM | TGI (NCI-H226 lung): 3.99 µM | GI50 (ACHN renal): 2.39 µM | TGI (ACHN renal): 6.62 µM | GI50 (IGROV1 ovarian): 12.3 µM | TGI (IGROV1 ovarian): 25.4 µM | GI50 (A549 NSCLC): 4.51 µM | TGI (A549 NSCLC): 17.5 µM | GI50 (LOX IMVI melanoma): 2.02 µM | TGI (LOX IMVI melanoma): 4.76 µM | GI50 (RXF 393 renal): 1.87 µM | TGI (RXF 393 renal): 3.59 µM | GI50 (SW-620 colon): 4.46 µM | TGI (SW-620 colon): 19.7 µM | GI50 (HT29 colon): 2.17 µM | TGI (HT29 colon): 4.9 µM | GI50 (SK-MEL-2 melanoma): 17.6 µM | TGI (SK-MEL-2 melanoma): 33.6 µM | GI50 (HCT-15 colon): 3.01 µM | TGI (HCT-15 colon): 11.7 µM | GI50 (SF-268 CNS): 13.3 µM | TGI (SF-268 CNS): 31.6 µM | GI50 (HOP-92 NSCLC): 8.19 µM | TGI (HOP-92 NSCLC): 26.4 µM | GI50 (HCC-2998 colon): 6.54 µM | TGI (HCC-2998 colon): 19 µM | GI50 (MALME-3M melanoma): 3.28 µM | TGI (MALME-3M melanoma): 12.7 µM | GI50 (RPMI-8226 leukemia): 13.2 µM | TGI (RPMI-8226 leukemia): > 100 µM | GI50 (OVCAR-8 ovarian): 2.3 µM | TGI (OVCAR-8 ovarian): 5.85 µM | GI50 (MOLT-4 leukemia): 5.71 µM | TGI (MOLT-4 leukemia): 36.5 µM | GI50 (UO-31 renal): 11.2 µM | TGI (UO-31 renal): 23.2 µM | GI50 (K-562 leukemia): 4.1 µM | TGI (K-562 leukemia): 95.8 µM | GI50 (KM12 colon): 15.2 µM | TGI (KM12 colon): 33.8 µM | GI50 (A498 renal): 15.4 µM | TGI (A498 renal): 29.6 µM | GI50 (PC-3 prostate): 12.1 µM | TGI (PC-3 prostate): 42.3 µM | GI50 (SK-OV-3 ovarian): 15.6 µM | TGI (SK-OV-3 ovarian): 30.8 µM | GI50 (SNB-19 CNS): 15.3 µM | TGI (SNB-19 CNS): 29.5 µM | GI50 (U251 CNS): 12.5 µM | TGI (U251 CNS): 25.3 µM | GI50 (MDA-MB-435): 4.09 µM | TGI (MDA-MB-435): 15.1 µM | GI50 (SNB-75 CNS): 7.41 µM | TGI (SNB-75 CNS): 22.1 µM
